The molecules below were run against GLP-1R (Homo sapiens, UniProt P43220) (assay: GLP-1R agonist cAMP stimulation assay (HTRF cAMP)). Details: HEK293 cell line expressing GLP-1 target; HTRF cAMP agonist mode, 30 min at RT.
Assay type: cell-based
Outline: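 Read-out was HTRF (665/615 ratio), interpolated onto a cAMP standard curve and normalised to DMSO (0%) and maximal GLP-1(7-37) reference (100%) wells. Assay: GLP-1R cells at 1.0×E5/mL incubated with compound dilution series (3-fold, 10 points) for 30 min at room temperature before 60 min detection.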

GLP-1R, sequence (P43220 24-463): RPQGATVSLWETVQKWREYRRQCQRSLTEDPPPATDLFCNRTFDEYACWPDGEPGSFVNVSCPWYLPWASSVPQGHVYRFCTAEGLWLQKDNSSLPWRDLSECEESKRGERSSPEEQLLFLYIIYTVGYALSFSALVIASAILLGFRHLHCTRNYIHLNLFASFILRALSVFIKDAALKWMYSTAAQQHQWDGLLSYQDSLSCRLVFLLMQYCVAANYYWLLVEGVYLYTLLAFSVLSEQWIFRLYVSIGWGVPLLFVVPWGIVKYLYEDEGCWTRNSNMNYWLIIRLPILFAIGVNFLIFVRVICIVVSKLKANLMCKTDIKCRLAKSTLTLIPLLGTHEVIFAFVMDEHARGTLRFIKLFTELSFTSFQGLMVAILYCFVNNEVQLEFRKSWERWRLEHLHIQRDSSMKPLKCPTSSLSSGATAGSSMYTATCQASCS

Compound | EC50 [nM]
COCCn1c(Cc2ccc(-c3cccc(OCc4ccc(C#N)cc4F)n3)cc2)nc2cc(C(=O)NCC(O)c3ccc(O)cc3)ccc21 (centres unmarked) [Compound 11] | 567
O=C(Nc1ccc2nc(CN3CC=C(c4cccc(OCc5ccc(Cl)cc5F)n4)CC3)n(C[C@@H]3CCO3)c2c1)c1cc(F)c2[nH]ncc2c1 [Compound 283] | 10.2
Cc1cc(C(=O)Nc2ccc3c(c2)nc(Cc2c(F)cc(-c4cccc5c4OC(C)(c4ccc(Cl)cc4F)O5)cc2F)n3C[C@@H]2CCO2)cc2[nH]c(=O)[nH]c12 (some centres unmarked) [Compound 321] | 0.94
COCCn1c(CN2CCC(c3cccc(OCc4ccc(Cl)cc4F)n3)CC2)nc2cc(C(=O)NCCc3cccc(O)c3)ccc21 [Compound 19] | 176
Cc1n[nH]c2c(Cl)cc(C(=O)Nc3ccc4c(c3)nc(Cc3cc(F)c(-c5cccc6c5OC(C)(c5ccc(Cl)cc5F)O6)cc3F)n4CC3CCO3)cc12 (centres unmarked) [Compound 320] | 13.7
Cc1n[nH]c2c(C(F)(F)F)cc(NC(=O)c3ccc4c(c3)nc(CN3CC=C(c5cccc6c5OC(C)(c5ccc(Cl)cc5F)O6)CC3)n4CC3CCO3)cc12 (centres unmarked) [Compound 295] | 2.19
O=C(NCC(=O)N1C[C@@H](F)C[C@H]1C(=O)O)c1ccc2c(c1)nc(CN1CCC(c3cccc(OCc4ccc(Cl)cn4)n3)CC1)n2C[C@@H]1CCO1 [Compound 48] | 4.36
Cc1cc(C(=O)Nc2ccc3c(c2)nc(CN2CC=C(c4cccc(OCc5ccc(C#N)cc5F)n4)CC2)n3C[C@@H]2CCO2)cc2c(C(F)F)n[nH]c12 [Compound 228] | 1.26
COCCn1c(Cc2ccc(-c3cccc(OCc4ccc(C#N)cc4F)n3)cc2)nc2cc(C(=O)NCCc3ccc(N)cc3)ccc21 [Compound 9] | 2980
O=C(Nc1ccc2c(c1)nc(CN1CC=C(c3cccc(OCc4ccc(Cl)cn4)n3)CC1)n2C[C@@H]1CCO1)c1cc(C(F)(F)F)c2c(c1)C1(CC1)C(=O)N2 [Compound 211] | 1.02
Cc1n[nH]c2c(C)cc(NC(=O)c3ccc4c(c3)nc(CN3CC=C(c5cccc(OCc6ccc(Cl)cn6)n5)CC3)n4C[C@@H]3CCO3)cc12 [Compound 165] | 0.88
Cc1cc2c(C#N)ccc(COc3cccc(C4=CCN(Cc5nc6cc(C(=O)Nc7ccc8[nH]nc(C)c8c7)ccc6n5C[C@@H]5CCO5)CC4)n3)c2o1 [Compound 355] | 0.78
CC1(c2ccc(Cl)cc2F)Oc2cccc(C3=CCN(Cc4nc5cc(C(=O)Nc6ccc7[nH]nc(F)c7c6)ccc5n4CC4CCO4)CC3)c2O1 (centres unmarked) [Compound 292] | 8.73
C=C(C)c1n[nH]c2ccc(C(=O)Nc3ccc4c(c3)nc(C3CC35CCN(c3cccc(OCc6ccc(Cl)cc6F)n3)CC5)n4CC3CCO3)cc12 (centres unmarked) [Compound 243] | 0.48
Cc1n[nH]c2c(Cl)cc(C(=O)Nc3ccc4c(c3)nc(C3CC35CCN(c3cccc(OCc6ccc(Cl)cc6F)n3)CC5)n4CC3CCO3)cc12 (centres unmarked) [Compound 248] | 1.28
Cc1n[nH]c2c(F)cc(C(=O)Nc3ccc4c(c3)nc(C(F)(F)N3CC=C(c5cccc(OCc6ccc(Cl)cc6F)n5)CC3)n4C[C@@H]3CCO3)cc12 [Compound 255] | 0.32
Cc1cc(C(=O)Nc2ccc3nc(CN4CC=C(c5cccc(OCc6ccc(Cl)cc6F)n5)CC4)n(C[C@@H]4CCO4)c3c2)cc2c1NC(=O)C21CC1 [Compound 282] | 4.32
Cc1n[nH]c2c(C(F)(F)F)cc(NC(=O)c3ccc4c(c3)nc(CN3CC=C(c5cccc6c5O[C@@](C)(c5ccc(Cl)cc5F)O6)CC3)n4CC3CCO3)cc12 (some centres unmarked) [Compound 388] | 0.82
N#Cc1ccc(COc2cccc(C3=CCN(Cc4nc5cc(C(=O)Nc6cc(F)c7[nH]ncc7c6)ccc5n4C[C@@H]4CCO4)CC3)n2)c(F)c1 [Compound 180] | 1.06
Cc1n[nH]c2c(C)cc(C(=O)Nc3ccc4c(c3)nc(CN3CC=C(c5cccc6c5OC(C)(c5ccc(Cl)cc5F)O6)CC3)n4CC3CCO3)cc12 (centres unmarked) [Compound 305] | 0.19
Cc1cc(C(=O)Nc2ccc3c(c2)nc(Cc2c(F)cc(-c4cccc5c4OC(C)(c4ccc(Cl)cc4F)O5)cc2F)n3C[C@@H]2CCO2)cc2c1NC(=O)C21CC1 (some centres unmarked) [Compound 319] | 0.43
Cc1n[nH]c2c(F)cc(NC(=O)c3ccc4c(c3)nc(CN3CC=C(c5cccc(OCc6ccc(C#N)c7c6ncn7C)n5)CC3)n4C[C@@H]3CCO3)cc12 [Compound 367] | 3.92
Cc1n[nH]c2c(Cl)cc(C(=O)Nc3ccc4c(c3)nc(CN3CC=C(c5cccc6c5OC(C)(c5ccc(Cl)cc5F)O6)CC3)n4CC3CCO3)cc12 (centres unmarked) [Compound 308] | 3.12
O=C(Nc1ccc2c(c1)nc(CN1CC=C(c3cccc(OCc4ccc(Cl)cc4F)n3)CC1)n2CC1CCO1)c1ccn2ncc(Cl)c2c1 (centres unmarked) [Compound 206] | 5.91
Cc1cc2c(C#N)ccc(COc3cccc(C4=CCN(Cc5nc6cc(NC(=O)c7cc(F)c8[nH]nc(C)c8c7)ccc6n5C[C@@H]5CCO5)CC4)n3)c2o1 [Compound 360] | 0.19
COCCn1c(CN2CCC(c3cccc(OCc4ccc(Cl)cc4F)n3)CC2)nc2cc(C(=O)NCCCn3ccnc3)ccc21 [Compound 16] | 146
Cc1n[nH]c2c(C)cc(NC(=O)c3ccc4c(c3)nc(CN3CC=C(c5cccc(OCc6cc(F)c(C#N)s6)n5)CC3)n4C[C@@H]3CCO3)cc12 [Compound 364] | 0.38

Continued, values first:

EC50 [nM] | Compound
5.12 | Cc1cc2c(C#N)ccc(COc3cccc(C4CCN(Cc5nc6cc(NC(=O)c7ccc8[nH]nc(C)c8c7)ccc6n5C[C@@H]5CCO5)CC4)n3)c2o1 [Compound 370]
3.55 | CCc1cc(NC(=O)c2ccc3c(c2)nc(CN2CC=C(c4cccc(OCc5ccc(Cl)cc5F)n4)CC2)n3C[C@@H]2CCO2)cc2c(C)n[nH]c12 [Compound 170]
34 | O=C(O)CNC(=O)c1ccc2c(c1)nc(CN1CCC(c3cccc(OCc4ccc(Cl)cc4F)n3)CC1)n2C[C@@H]1CCO1 [Compound 50]
15.2 | O=C(Nc1ccc2[nH]nc(F)c2c1)c1ccc2c(c1)nc(CN1CC=C(c3cccc(OCc4ccc(Cl)cc4F)n3)CC1)n2C[C@@H]1CCO1 [Compound 139]
1.02 | Cc1cc(NC(=O)c2ccc3c(c2)nc(CN2CC=C(c4cccc(OCc5ccc(Cl)cc5F)n4)CC2)n3C[C@@H]2CCO2)cc2c(C(F)F)n[nH]c12 [Compound 169]
1.2 | Cc1n[nH]c2ccc(C(=O)Nc3ccc4nc(CN5CC=C(c6cccc(OCc7ccc(C#N)cc7F)n6)CC5)n(CC5CCO5)c4c3)cc12 (centres unmarked) [Compound 290]
114 | O=C(N[C@@H](Cc1cnc[nH]1)C(=O)O)c1ccc2c(c1)nc(CN1CCC(c3cccc(OCc4ccc(Cl)cc4F)n3)CC1)n2C[C@@H]1CCO1 [Compound 53]
3.21 | Cc1n[nH]c2ccc(NC(=O)c3ccc4c(c3)nc(CN3CCC(c5cccc(OCc6ccc(Cl)cc6F)n5)CC3)n4C[C@@H]3CCO3)c(F)c12 [Compound 122]
1.39 | O=C(NCC(=O)N1C[C@@H](O)C[C@H]1C(=O)O)c1ccc2c(c1)nc(CN1CCC(c3cccc(OCc4ccc(Cl)cc4F)n3)CC1)n2C[C@@H]1CCO1 [Compound 45]
16.9 | O=C(Nc1ccc2ncsc2c1)c1ccc2c(c1)nc(CN1CCC(c3cccc(OCc4ccc(Cl)cc4F)n3)CC1)n2C[C@@H]1CCO1 [Compound 98]
8.71 | Cc1n[nH]c2cnc(C(=O)Nc3ccc4c(c3)nc(CN3CC=C(c5cccc(OCc6ccc(Cl)cc6F)n5)CC3)n4C[C@@H]3CCO3)cc12 [Compound 237]
0.39 | Cc1c(C#N)sc(COc2cccc(C3CCN(Cc4nc5cc(NC(=O)c6ccc7[nH]nc(C)c7c6)ccc5n4C[C@@H]4CCO4)CC3)n2)c1F [Compound 373]
3.19 | Cc1n[nH]c2ccc(C(=O)Nc3ccc4c(c3)nc(CN3CC=C(c5cccc(OCc6ccc(Cl)cc6F)n5)CC3)n4C[C@@H]3CCO3)nc12 [Compound 239]
17.9 | O=C(Nc1ccc2[nH]c(=O)cnc2c1)c1ccc2c(c1)nc(CN1CCC(c3cccc(OCc4ccc(Cl)cc4F)n3)CC1)n2C[C@@H]1CCO1 [Compound 84]
11.9 | Cc1n[nH]c2ncc(C(=O)Nc3ccc4c(c3)nc(CN3CC=C(c5cccc(OCc6ccc(Cl)cc6F)n5)CC3)n4C[C@@H]3CCO3)nc12 [Compound 238]
0.87 | O=C(Nc1ccc2[nH]nc(C(F)(F)F)c2c1)c1ccc2c(c1)nc(CN1CC=C(c3cccc(OCc4ccc(Cl)cc4F)n3)CC1)n2C[C@@H]1CCO1 [Compound 161]
2.22 | CC(C)c1n[nH]c2ccc(C(=O)Nc3ccc4c(c3)nc(C3CC35CCC(c3cccc(OCc6ccc(Cl)cc6F)n3)CC5)n4CC3CCO3)cc12 (centres unmarked) [Compound 251]
> 10000 | COCCn1c(CN2CCC(c3cccc(OCc4ccc(Cl)cc4F)n3)CC2)nc2cc(C(=O)N3Cc4[nH]nc(N)c4C3)ccc21 [Compound 26]
3.29 | O=C(Nc1ccc2[nH]ncc2c1)c1ccc2c(c1)nc(CN1CC=C(c3cccc(OCc4ccc(Cl)cc4F)n3)CC1)n2C[C@@H]1CCO1 [Compound 141]
3.69 | Cc1n[nH]c2ccc(NC(=O)c3ccc4c(c3)nc(CN3CC=C(c5cccc(OCc6ccc(Cl)cc6F)n5)CC3)n4C[C@@H]3CCO3)nc12 [Compound 191]
62 | Cc1nc2ccc(NC(=O)c3ccc4c(c3)nc(CN3CCC(c5cccc(OCc6ccc(Cl)cc6F)n5)CC3)n4C[C@@H]3CCO3)cc2s1 [Compound 95]
0.39 | Cc1n[nH]c2c(C(F)(F)F)cc(C(=O)Nc3ccc4c(c3)nc(CN3CC=C(c5cccc(OCc6ccc(Cl)cc6F)n5)CC3)n4C[C@@H]3CCO3)cc12 [Compound 210]
1.23 | Cc1cc(NC(=O)c2ccc3c(c2)nc(CN2CC=C(c4cccc(OCc5ccc(Cl)cc5F)n4)CC2)n3C[C@@H]2CCO2)c(F)c2c(C)n[nH]c12 [Compound 175]
47 | Cc1nn(C)c2ccc(NC(=O)c3ccc4c(c3)nc(CN3CCC(c5cccc(OCc6ccc(Cl)cc6F)n5)CC3)n4C[C@@H]3CCO3)cc12 [Compound 109]
37.2 | COCCn1c(CN2CCC(c3cccc(OCc4ccc(Cl)cc4F)n3)CC2)nc2cc(C(=O)NCc3ccc(O)c(F)c3)ccc21 [Compound 31]
1.21 | Cc1n[nH]c2c(Cl)cc(C(=O)Nc3ccc4c(c3)nc(CN3CC=C(c5cccc(OCc6ccc(Cl)cc6F)n5)CC3)n4C[C@@H]3CCO3)cc12 [Compound 214]

Source: patent US20230271949A1, “GLP-1R MODULATING COMPOUNDS” (ASCLETIS BIOSCIENCE CO., LTD., priority 2022, published 2023)
